Measurements reported in US20260166003A1, “NOVEL APTAMER, AND COMPOSITION FOR COGNITIVE FUNCTION IMPROVEMENT AND ANTI-AGING COMPRISING APTAMER AS ACTIVE INGREDIENT” (NEXMOS CO., LTD, priority 2021, published 2026).

Assays:
[1] = OPDA assay in gastric acid-like low pH environment; format: physicochemical; settings: pH between 1.4 and 1.6 with hydrochloric acid, hydrogen peroxide, 900 minutes; compared to normal condition; FIG. 3
Experimental: OPDA assay was used to confirm whether the vitamin C oxidation delay effect of aptamin C320 was maintained in a low pH environment similar to gastric acid in order to confirm that the effect of the substance was not reduced or eliminated by the pH environment in the stomach when ingested orally.
Thereafter, hydrogen peroxide was added to prepare an oxidation condition, and at this time, the pH was adjusted to be between 1.4 and 1.6 using hydrochloric acid, and oxidation of L-ascorbic acid was measured by adding an o-phenylenediamine (OPDA), which is a fluorescent dye. The degree of DHA production can be quantitatively analyzed by measuring the amount of fluorescence from DHA-OPDA generated by the reaction of DHA, an oxide of L-ascorbic acid, with OPDA. Under the above conditions, the fluorescence amount of DHA-OPDA was measured every 2 minutes for a total of 900 minutes.

[2] = OPDA assay of vitamin C oxidation delay; format: biochemical; settings: L-ascorbic acid 0.1%, aptamer 0.001%, hydrogen peroxide, 900 minutes; compared with C332 and other 20 mer aptamers; FIG. 2
Experimental: In this case, the L-ascorbic acid was mixed at a ratio of 0.1% and the aptamer was mixed at 0.001%. Thereafter, hydrogen peroxide was added to prepare an oxidation condition, and then oxidation of L-ascorbic acid was measured by adding o-phenylenediamine (OPDA), a fluorescent dye. The degree of DHA production may be quantitatively analyzed by measuring the amount of fluorescence from DHA-OPDA generated by the reaction of DHA, an oxide of L-ascorbic acid, with OPDA. Under the above conditions, the amount of fluorescence of DHA-OPDA was measured every 2 minutes for a total of 900 minutes.

aptamin C320: 20 mer DNA aptamer, SEQ ID NO: 1, GCCAGTCTCGCGGTGGCGGC, delays oxidation of vitamin C (DNA, backbone and methylation of C not given here)
maintenance of vitamin C oxidation delay effect in acid condition [1]: maintained without significantly decreasing in acid condition | vitamin C oxidation delay effect (DHA-OPDA fluorescence) [2]: delays the oxidation of vitamin C to the highest extent
